Key:
[1] = tested on: participants with schizophrenia or related psychotic disorder; experiment: Positive and Negative Syndrome Scale (PANSS), double-blind placebo-controlled study of CBD as adjunctive therapy; type: in vivo, human
Protocol: (§1) Example 1 below describes the use of a highly purified cannabis extract comprising cannabidiol (CBD) in a human clinical trial. Example 1 describes data produced in a double-blind, randomised, placebo-controlled, parallel group study of highly purified CBD as adjunctive therapy in first line treatment of schizophrenia or related psychotic disorder.
(§2) An eight-week, multi-centre, double-blind, randomised, placebo-controlled, parallel group study was conducted with the aim to determine the efficacy, safety and tolerability of highly purified CBD as adjunctive therapy in first line treatment of schizophrenia or related psychotic disorder.
(§3) This study evaluated the efficacy of highly purified CBD compared with placebo on the participant's PANSS Total score, ‘P’, ‘N’, ‘G’, SANS and BACS scores.
(§4) Changes from baseline in PANSS scores (Total, ‘P’, ‘N’ and ‘G’), SANS and BACS were recorded at the start of the study (baseline) and at the end of treatment (after 6 weeks treatment with CBD or placebo).
(§5) For inclusion in the study participants were required to be male or female aged 18 to 65 years, diagnosed with schizophrenia or a related psychotic disorder (such as schizoaffective or schizophreniform disorder) as defined by the Diagnostic and Statistical Manual of Mental Disorders Version 4. Participants must have been treated for a minimum of four-weeks and be on a stable dose of their current antipsychotic medication. […] A PANSS score in excess of 60 infers that the patient has symptoms related to schizophrenia or related disorders.
(§6) The participants were randomised to one of two treatment groups which each consisted of 39 participants. Treatment was administered as either 5 ml CBD (100 mg/ml) oral solution to be taken twice daily or 5 ml matched placebo oral solution to be taken twice daily.
Positive and Negative Syndrome Scale (PANSS)
The PANSS is a medical scale completed by a trained rater and is used for measuring symptom severity of participants with schizophrenia or related psychotic disorder. The name refers to the two types of symptoms in schizophrenia, as defined by the American Psychiatric Association: positive symptoms, which refer to an excess or distortion of normal functions (e.g. hallucinations and delusions), and negative symptoms, which represent a diminution or loss of normal functions.
It is a 30 item rating instrument that assesses the positive and negative symptoms of schizophrenia as well as symptoms of general psychopathology. A PANSS Total score is derived from the sum of the 30 items and the PANSS items are also grouped into three subscales: Positive (‘P’), Negative (‘N’), and General (‘G’). Individual items are rated on a seven point scale, where 1=absent and 7=extreme. This scale was measured at each assessment visit (Visit 1-4).
The minimum score PANSS scoring system is 30 and patients with a score of higher than 60 are considered to still be suffering psychotic symptoms.
PANSS ‘P’ scale measures the severity of: • i) Delusions • ii) Conceptual disorganisation • iii) Hallucinations • iv) […] • v) Grandiosity • vi) Suspiciousness/persecution • vii) Hostility
PANSS ‘N’ scale measures the severity of: • i) Blunted affect • ii) Emotional withdrawal • iii) Poor rapport • iv) Passive/apathetic social withdrawal • v) Difficulty in abstract thinking • vi) Lack of spontaneity and flow of conversation • vii) Stereotyped thinking
PANSS ‘G’ psychopathology scale measures the severity of: • i) Somatic concern • ii) Anxiety • iii) Guilt feelings • iv) Tension • v) Mannerisms and posturing • vi) Depression • vii) Motor retardation • viii) Uncooperativeness • ix) Unusual thought content • x) Disorientation • xi) Poor attention • xii) Lack of judgment and insight • xiii) Disturbance of volition • xiv) Poor impulse control • xv) Preoccupation • xvi) Active social avoidance

[2] = tested on: participants with schizophrenia or related psychotic disorder; experiment: Brief Assessment of Cognition in Schizophrenia (BACS), double-blind placebo-controlled study of CBD as adjunctive therapy; type: in vivo, human; settings: all patients
Protocol: as §1, §2, §3, §4, §5, §6
Brief Assessment of Cognition in Schizophrenia (BACS)
The BACS is an instrument used to assess the aspects of cognition found to be most impaired and most strongly correlated with outcome in participants with schizophrenia or related psychotic disorder. The BACS yields a high completion rate in participants with schizophrenia or related psychotic disorder.
The BACS consists of six domains: verbal memory; working memory; motor speed; verbal fluency; attention and speed information processing and executive functions. A score is obtained for each domain and a composite summary score is also calculated as the average of the scores from the six domains. An increase in score is indicative of an improvement in cognition.
This instrument was assessed at each assessment visit (Visits 1-4).

[3] = tested on: patients with bipolar affective disorder; settings: two female patients, 30 days; one with olanzapine as adjunct, one CBD monotherapy; cited from earlier work
rats treated with MK-801 = settings: cited from earlier work
[4] = CBD adjunct, 6 weeks, all patients
[5] = CBD adjunct, 6 weeks, patients on amisulpride
[6] = CBD adjunct, 6 weeks, patients on aripiprazole
[7] = CBD adjunct, 6 weeks, patients on olanzapine
[8] = CBD adjunct, 6 weeks, patients on other antipsychotics
[9] = CBD adjunct, 6 weeks, patients on quetiapine
[10] = CBD adjunct, 6 weeks, patients on risperidone

Question: With C=C(C)[C@@H]1CCC(C)=C[C@H]1c1c(O)cc(CCCCC)cc1O [CBD, Cannabidiol] as the molecule, how does the “Change in baseline scores, PANSS total score” value [1, 4] read?
Answer: −11.4

Question: What about the “Change in baseline scores, PANSS ‘G’ score” value [1, 4] of the same molecule?
Answer: −5.3

Question: And the “Change in baseline scores, PANSS ‘N’ score” value [1, 4]?
Answer: −3.1

Question: What about the “Change in baseline scores, PANSS ‘P’ score” value [1, 4] of the same molecule?
Answer: −3.1

Question: And the “Change in baseline scores, PANSS total” value [1, 5]?
Answer: −11.3

Question: What about the “Change in baseline scores, PANSS ‘P’ score” value [1, 5] of the same molecule?
Answer: −4.0

Question: And the “Change in baseline scores, PANSS total” value [1, 6]?
Answer: −12.3

Question: And the “Change in baseline scores, PANSS ‘P’ score” value [1, 6]?
Answer: −3.8

Question: And the “Change in baseline scores, PANSS total” value [1, 7]?
Answer: −17.5

Question: What about the “Change in baseline scores, PANSS ‘P’ score” value [1, 7] of the same molecule?
Answer: −3.9

Question: What about the “Change in baseline scores, PANSS total” value [1, 8] of the same molecule?
Answer: −10.3

Question: What about the “Change in baseline scores, PANSS ‘P’ score” value [1, 8] of the same molecule?
Answer: −1.4

Question: And the “Change in baseline scores, PANSS total” value [1, 9]?
Answer: −7.5

Question: And the “Change in baseline scores, PANSS ‘P’ score” value [1, 9]?
Answer: −1.7

Question: And the “Change in baseline scores, PANSS total” value [1, 10]?
Answer: −7.8

Question: What about the “Change in baseline scores, PANSS ‘P’ score” value [1, 10] of the same molecule?
Answer: −2.6

Question: And the “Responder status for change in baseline scores, PANSS ‘P’ score” value ([1]; CBD adjunct, patients with >= 20% change from baseline, P = 0.0679 vs placebo)?
Answer: 42.9%

Question: What about the “Responder status for change in baseline scores, PANSS total score” value ([1]; CBD adjunct, patients with >= 20% change from baseline, P = 0.0896 vs placebo) of the same molecule?
Answer: 28.6%

Question: And the “Responder status for change in baseline scores, PANSS ‘G’ score” value ([1]; CBD adjunct, patients with >= 20% change from baseline, P = 0.2598 vs placebo)?
Answer: 28.6%

Question: What about the “Responder status for change in baseline scores, PANSS ‘N’ score” value ([1]; CBD adjunct, patients with >= 20% change from baseline, P = 0.7951 vs placebo) of the same molecule?
Answer: 26.2%

Question: And the “Change in baseline scores, PANSS ‘P’ score: difference” value (from here on “Change … PANSS ‘P’ score: difference”) ([1]; CBD vs placebo, all patients, P = 0.0188)?
Answer: (−1.4)

Question: What about the “Change in baseline scores, PANSS total score: difference” value ([1]; CBD vs placebo, all patients, P = 0.1332) of the same molecule?
Answer: (−2.8)

Question: What about the “Change in baseline scores, PANSS ‘G’ score: difference” value ([1]; CBD vs placebo, all patients, P = 0.1963) of the same molecule?
Answer: (−1.3)

Question: And the “Change in baseline scores, PANSS ‘N’ score: difference” value ([1]; CBD vs placebo, all patients, P = 0.8841)?
Answer: (−0.1)

Question: What about the “Change in baseline scores, PANSS total: difference” value (“Change … PANSS total: difference” for short) ([1]; CBD vs placebo, patients on amisulpride, P = 0.5543) of the same molecule?
Answer: (7.9)

Question: What about the “Change … PANSS ‘P’ score: difference” value ([1]; CBD vs placebo, patients on amisulpride, P = 0.8241) of the same molecule?
Answer: (−0.5)

Question: What about the “Change … PANSS ‘P’ score: difference” value ([1]; CBD vs placebo, patients on aripiprazole, P = 0.0345) of the same molecule?
Answer: (−3.1)

Question: What about the “Change … PANSS total: difference” value ([1]; CBD vs placebo, patients on aripiprazole, P = 0.1220) of the same molecule?
Answer: (−6.2)

Question: And the “Change … PANSS total: difference” value ([1]; CBD vs placebo, patients on olanzapine, P = 0.0067)?
Answer: (−10.7)

Question: What about the “Change … PANSS ‘P’ score: difference” value ([1]; CBD vs placebo, patients on olanzapine, P = 0.1434) of the same molecule?
Answer: (−1.5)

Question: And the “Change … PANSS total: difference” value ([1]; CBD vs placebo, patients on other antipsychotics, P = 0.2746)?
Answer: (−10.6)

Question: What about the “Change … PANSS ‘P’ score: difference” value ([1]; CBD vs placebo, patients on other antipsychotics, P = 0.9550) of the same molecule?
Answer: (−0.2)

Question: And the “Change … PANSS total: difference” value ([1]; CBD vs placebo, patients on quetiapine, P = 0.6640)?
Answer: (5.1)

Question: What about the “Change … PANSS ‘P’ score: difference” value ([1]; CBD vs placebo, patients on quetiapine, P = 0.7905) of the same molecule?
Answer: (0.6)

Question: And the “Change … PANSS ‘P’ score: difference” value ([1]; CBD vs placebo, patients on risperidone, P = 0.4625)?
Answer: (−0.8)

Question: And the “Change … PANSS total: difference” value ([1]; CBD vs placebo, patients on risperidone, P = 0.6470)?
Answer: (1.8)

Question: What about the “Change in baseline scores, BACS composite score” value ([2]; CBD adjunct, 6 weeks) of the same molecule?
Answer: 3.5

Question: What about the “Change in baseline scores, BACS sub-domain 1 Verbal memory” value ([2]; CBD adjunct, 6 weeks) of the same molecule?
Answer: 2.1

Question: And the “Change in baseline scores, BACS sub-domain 2 Working memory” value ([2]; CBD adjunct, 6 weeks)?
Answer: 1.8

Question: And the “Change in baseline scores, BACS sub-domain 3 Motor speed” value ([2]; CBD adjunct, 6 weeks)?
Answer: 6.2

Question: And the “Change in baseline scores, BACS sub-domain 4 Verbal fluency” value ([2]; CBD adjunct, 6 weeks)?
Answer: 4.3

Question: And the “Change in baseline scores, BACS sub-domain 5 Attention and speed information processing” value ([2]; CBD adjunct, 6 weeks)?
Answer: 4.4

Question: And the “Change in baseline scores, BACS sub-domain 6 Executive function” value ([2]; CBD adjunct, 6 weeks)?
Answer: 2.0

Question: And the “Change in baseline scores, BACS sub-domain 3 Motor speed: difference” value ([2]; CBD vs placebo, P = 0.0439)?
Answer: (4.2)

Question: What about the “Change in baseline scores, BACS composite score: difference” value ([2]; CBD vs placebo, P = 0.0677) of the same molecule?
Answer: (1.3)

Question: And the “Change in baseline scores, BACS sub-domain 6 Executive function: difference” value ([2]; CBD vs placebo, P = 0.0682)?
Answer: (1.4)

Question: And the “Change in baseline scores, BACS sub-domain 2 Working memory: difference” value ([2]; CBD vs placebo, P = 0.1414)?
Answer: (1.0)

Question: And the “Change in baseline scores, BACS sub-domain 5 Attention and speed information processing: difference” value ([2]; CBD vs placebo, P = 0.5915)?
Answer: (0.9)

Question: And the “Change in baseline scores, BACS sub-domain 4 Verbal fluency: difference” value ([2]; CBD vs placebo, P = 0.8059)?
Answer: (0.4)

Question: And the “Change in baseline scores, BACS sub-domain 1 Verbal memory: difference” value ([2]; CBD vs placebo, P = 0.9933)?
Answer: (0.1)

Question: What about the “Efficacy in bipolar affective disorder” value [3] of the same molecule?
Answer: ineffective

Question: And the “Effect on social deficits” value (rats treated with MK-801)?
Answer: reverse social deficits
